Columns and labels:
[1] = target: T1, ATP-sensitive inward rectifier potassium channel 1 (Homo sapiens, UniProt P48048); assay: Inhibition of human ROMK1 expressed in CHO cells by Tl+ flux assay; assay type: cell-based
T1 sequence (P48048 whole entry): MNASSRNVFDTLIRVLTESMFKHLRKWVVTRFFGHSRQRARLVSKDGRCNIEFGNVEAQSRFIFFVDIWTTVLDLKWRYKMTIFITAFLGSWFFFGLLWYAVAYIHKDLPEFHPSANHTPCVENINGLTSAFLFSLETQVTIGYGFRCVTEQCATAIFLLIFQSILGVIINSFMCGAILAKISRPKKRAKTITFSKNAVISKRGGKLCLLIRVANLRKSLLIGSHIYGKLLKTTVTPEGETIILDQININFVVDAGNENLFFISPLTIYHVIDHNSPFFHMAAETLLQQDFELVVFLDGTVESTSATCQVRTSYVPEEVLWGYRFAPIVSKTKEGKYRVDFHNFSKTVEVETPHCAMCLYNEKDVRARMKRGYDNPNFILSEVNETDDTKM

[2] = target: T1, ATP-sensitive inward rectifier potassium channel 1; assay: Inhibition of human ROMK1 expressed in HEK293 cells by Tl+ flux assay; assay type: cell-based
[3] = target: Voltage-gated inwardly rectifying potassium channel KCNH2 (Homo sapiens, UniProt Q12809); assay: Inhibition of human ERG
Sequence of Voltage-gated inwardly rectifying potassium channel KCNH2 (Q12809 whole entry): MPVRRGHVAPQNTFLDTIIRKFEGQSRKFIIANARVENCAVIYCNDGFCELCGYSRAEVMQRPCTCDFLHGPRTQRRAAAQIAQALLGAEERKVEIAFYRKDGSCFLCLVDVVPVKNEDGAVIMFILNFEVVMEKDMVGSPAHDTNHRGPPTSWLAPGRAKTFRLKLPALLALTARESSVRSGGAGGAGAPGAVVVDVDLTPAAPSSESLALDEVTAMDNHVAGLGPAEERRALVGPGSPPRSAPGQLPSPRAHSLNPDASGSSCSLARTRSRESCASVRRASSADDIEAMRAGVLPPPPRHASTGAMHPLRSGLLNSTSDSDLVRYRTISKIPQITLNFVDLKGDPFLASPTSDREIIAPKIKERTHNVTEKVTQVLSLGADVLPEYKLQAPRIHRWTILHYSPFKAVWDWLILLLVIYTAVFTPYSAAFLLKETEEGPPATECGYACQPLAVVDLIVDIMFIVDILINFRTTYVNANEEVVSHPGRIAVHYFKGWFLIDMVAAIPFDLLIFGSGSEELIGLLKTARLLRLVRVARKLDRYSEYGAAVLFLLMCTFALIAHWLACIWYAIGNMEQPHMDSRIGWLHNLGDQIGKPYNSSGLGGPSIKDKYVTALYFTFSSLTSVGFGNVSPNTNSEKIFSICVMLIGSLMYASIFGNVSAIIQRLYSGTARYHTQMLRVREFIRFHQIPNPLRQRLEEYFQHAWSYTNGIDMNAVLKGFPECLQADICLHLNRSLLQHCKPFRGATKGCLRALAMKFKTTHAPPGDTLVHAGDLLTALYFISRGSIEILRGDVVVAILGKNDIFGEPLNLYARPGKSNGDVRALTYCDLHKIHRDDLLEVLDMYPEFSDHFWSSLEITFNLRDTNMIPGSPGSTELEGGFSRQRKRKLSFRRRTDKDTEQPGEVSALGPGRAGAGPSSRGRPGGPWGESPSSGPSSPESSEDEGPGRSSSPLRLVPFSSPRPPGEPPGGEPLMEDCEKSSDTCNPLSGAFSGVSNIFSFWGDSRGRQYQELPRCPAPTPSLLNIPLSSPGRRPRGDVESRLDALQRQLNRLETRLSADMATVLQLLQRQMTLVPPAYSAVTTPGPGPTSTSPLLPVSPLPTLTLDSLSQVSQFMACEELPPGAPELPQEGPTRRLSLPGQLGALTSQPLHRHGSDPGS

[4] = target: T2, ATP-sensitive inward rectifier potassium channel 1 (Rattus norvegicus, UniProt P35560); assay: Inhibition of rat ROMK1 expressed in HEK293 cells by Tl+ flux assay; assay type: cell-based
T2 sequence (P35560 whole entry): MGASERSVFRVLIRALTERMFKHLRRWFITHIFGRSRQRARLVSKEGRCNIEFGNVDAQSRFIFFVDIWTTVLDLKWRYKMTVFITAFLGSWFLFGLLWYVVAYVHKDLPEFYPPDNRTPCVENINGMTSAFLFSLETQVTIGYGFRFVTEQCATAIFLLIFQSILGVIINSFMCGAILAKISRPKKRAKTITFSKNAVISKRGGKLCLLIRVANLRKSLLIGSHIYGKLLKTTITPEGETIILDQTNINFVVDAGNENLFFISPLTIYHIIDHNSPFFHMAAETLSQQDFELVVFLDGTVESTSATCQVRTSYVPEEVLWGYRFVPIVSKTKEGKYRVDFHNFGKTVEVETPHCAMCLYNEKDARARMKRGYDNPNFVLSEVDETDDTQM

[5] = test system: HEK293; assay: Inhibition of hamster SUR1/mouse Kir6.2 expressed in HEK293 cells at 50 uM by patch clamp electrophysiology assay relative to control; assay type: cell-based
[6] = Stability in human liver microsomes assessed as parent compound remaining level; assay type: ADME, Microsome
[7] = Protein binding in human plasma; assay type: ADME, cell-free; settings: read-out: PPB (converted)
[8] = Protein binding in rat plasma; assay type: ADME, cell-free; settings: read-out: PPB (converted)
[9] = Stability in rat liver microsomes assessed as parent compound remaining level; assay type: ADME, Microsome
[10] = target: Sodium-dependent noradrenaline transporter (Homo sapiens) (UniProt P23975); assay: Inhibition of norepinephrine transporter (unknown origin) at 10 uM by radioligand displacement assay relative to control
Sequence of Sodium-dependent noradrenaline transporter (Homo sapiens) (P23975 whole entry): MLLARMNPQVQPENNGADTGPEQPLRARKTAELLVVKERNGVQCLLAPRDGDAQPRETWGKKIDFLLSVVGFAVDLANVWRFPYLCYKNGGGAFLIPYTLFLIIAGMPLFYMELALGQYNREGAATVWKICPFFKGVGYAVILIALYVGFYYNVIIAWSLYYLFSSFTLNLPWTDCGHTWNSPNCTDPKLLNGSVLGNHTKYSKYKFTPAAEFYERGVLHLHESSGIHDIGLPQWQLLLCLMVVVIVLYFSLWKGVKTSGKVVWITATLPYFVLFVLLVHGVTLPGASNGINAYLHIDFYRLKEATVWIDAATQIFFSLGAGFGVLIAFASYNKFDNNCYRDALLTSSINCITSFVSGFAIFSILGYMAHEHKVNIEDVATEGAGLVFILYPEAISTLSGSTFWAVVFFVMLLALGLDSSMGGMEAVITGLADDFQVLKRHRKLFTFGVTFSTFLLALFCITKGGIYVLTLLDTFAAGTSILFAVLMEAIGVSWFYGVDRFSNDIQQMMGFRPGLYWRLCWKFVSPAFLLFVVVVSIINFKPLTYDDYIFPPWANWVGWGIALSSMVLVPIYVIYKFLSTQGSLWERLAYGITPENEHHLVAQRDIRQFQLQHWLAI

[11] = test system: HEK293; assay: Inhibition of hamster SUR1/mouse Kir6.2 expressed in HEK293 cells at 10 uM by patch clamp electrophysiology assay relative to control; assay type: cell-based
[12] = organism: Homo sapiens; assay: Inhibition of GABA receptor (unknown origin) at 10 uM by radioligand displacement assay relative to control
[13] = target: Sodium-dependent dopamine transporter (Homo sapiens) (UniProt Q01959); assay: Inhibition of dopamine transporter (unknown origin) at 10 uM by radioligand displacement assay relative to control
Sequence of Sodium-dependent dopamine transporter (Homo sapiens) (Q01959 whole entry): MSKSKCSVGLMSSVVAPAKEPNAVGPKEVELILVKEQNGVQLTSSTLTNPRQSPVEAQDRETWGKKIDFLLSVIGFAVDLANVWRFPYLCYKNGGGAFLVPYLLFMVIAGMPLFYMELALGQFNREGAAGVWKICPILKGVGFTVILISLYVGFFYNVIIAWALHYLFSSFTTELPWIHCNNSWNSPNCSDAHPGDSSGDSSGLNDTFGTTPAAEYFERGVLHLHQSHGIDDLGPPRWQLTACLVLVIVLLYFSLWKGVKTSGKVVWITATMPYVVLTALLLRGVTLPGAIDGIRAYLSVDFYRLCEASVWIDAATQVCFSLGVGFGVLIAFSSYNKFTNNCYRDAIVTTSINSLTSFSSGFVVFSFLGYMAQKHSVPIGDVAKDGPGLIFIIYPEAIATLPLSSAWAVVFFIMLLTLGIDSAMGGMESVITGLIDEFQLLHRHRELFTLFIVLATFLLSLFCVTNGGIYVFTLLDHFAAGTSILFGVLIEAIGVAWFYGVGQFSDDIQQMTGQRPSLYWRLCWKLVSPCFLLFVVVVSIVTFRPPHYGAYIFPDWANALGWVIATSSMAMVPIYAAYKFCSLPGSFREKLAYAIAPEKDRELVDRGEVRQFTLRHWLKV

[14] = Inhibition of GABA receptor (unknown origin) by radioligand displacement assay; parameters: species or system Homo sapiens
[15] = target: T3, D(4) dopamine receptor (Homo sapiens) (UniProt P21917); assay: Inhibition of DRD4 (unknown origin) at 10 uM by radioligand displacement assay relative to control
T3 sequence (whole entry): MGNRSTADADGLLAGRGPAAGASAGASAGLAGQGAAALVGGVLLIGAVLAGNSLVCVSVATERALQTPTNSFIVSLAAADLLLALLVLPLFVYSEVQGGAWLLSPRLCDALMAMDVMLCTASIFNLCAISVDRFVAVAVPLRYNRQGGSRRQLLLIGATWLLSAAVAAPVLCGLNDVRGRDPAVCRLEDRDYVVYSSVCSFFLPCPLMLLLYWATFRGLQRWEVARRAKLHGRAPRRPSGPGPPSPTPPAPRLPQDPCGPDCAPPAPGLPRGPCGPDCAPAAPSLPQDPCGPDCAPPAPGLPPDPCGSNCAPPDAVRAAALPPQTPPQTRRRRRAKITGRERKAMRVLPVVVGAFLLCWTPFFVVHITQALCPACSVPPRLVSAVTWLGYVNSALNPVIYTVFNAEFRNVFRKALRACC

[16] = target: T4, Inward rectifier potassium channel 13 (Homo sapiens) (UniProt O60928); assay: Inhibition human Kir7.1 expressed in HEK293 cells at 10 uM by whole cell patch clamp assay relative to control; assay type: cell-based
T4 sequence (whole entry): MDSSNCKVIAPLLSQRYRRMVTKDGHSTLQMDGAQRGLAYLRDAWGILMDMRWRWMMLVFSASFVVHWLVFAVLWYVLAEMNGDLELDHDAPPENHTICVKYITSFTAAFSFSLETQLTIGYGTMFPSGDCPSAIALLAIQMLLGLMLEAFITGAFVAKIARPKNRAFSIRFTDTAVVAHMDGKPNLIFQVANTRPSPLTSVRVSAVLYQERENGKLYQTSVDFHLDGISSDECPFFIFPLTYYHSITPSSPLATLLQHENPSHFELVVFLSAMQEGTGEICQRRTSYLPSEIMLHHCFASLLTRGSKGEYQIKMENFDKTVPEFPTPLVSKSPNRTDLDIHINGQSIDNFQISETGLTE

Cc1c([C@@H]2CN(Cc3ccc(-n4cc(C#N)cn4)cn3)CCN2)ccc2c1COC2=O
IC50 [1]: 8.8 nM

Cc1cc(-c2ncc(CNC[C@H](O)c3ccc4c(c3C)COC4=O)s2)ccc1C#N
IC50 [1]: 6.6 nM

O=C1OCCc2cc([C@@H]3CN4CCN(C(=O)Cc5ccc(-n6cnnn6)cc5)C[C@H]4CO3)ccc21
IC50 [2]: 57 nM | IC50 [3]: 75900 nM

O=C1OCc2cc(C3CN4CCN(C(=O)Cc5ccc(-n6cnnn6)cc5)CC4CO3)ccc21 (stereo not given)
IC50 [2]: 65 to 105 nM | IC50 [3]: 21100 to 59400 nM

CC1=C(N2CCC3(CCN(C[C@H](O)c4ccc5c(c4)Cn4nnnc4-5)C[C@H]3F)C2=O)COC1=O (stereo not given in full)
IC50 [4]: 43 nM

Cc1c(C(O)CN2CCc3nc(-n4ncc5c(C#N)cccc54)ncc3C2)ccc2c1COC2=O (stereo not given)
IC50 [1]: 38 nM

O=[N+]([O-])c1ccc2[nH]c(CCCc3nc4cc([N+](=O)[O-])ccc4[nH]3)nc2c1
IC50 [4]: 8000 nM

CC1=C(N2CCC3(CCN(CCc4ccc5c(c4)Cn4nnnc4-5)CC3)C2=O)COC1=O
IC50 [4]: 6 nM

O=[N+]([O-])c1ccc2nc(COCc3nc4ccc([N+](=O)[O-])cc4[nH]3)[nH]c2c1
inhibition [5]: 28% | Stability [6]: 80% | fraction unbound [7]: 0.0086 | fraction unbound [8]: 0.0161 | Stability [9]: 60% | inhibition [10]: > 50% | inhibition [11]: 17% | inhibition [12]: > 50% | IC50 [4]: 240 nM | inhibition [13]: > 50% | IC50 [14]: 6200 nM | inhibition [15]: > 50%

CC1=C(N2CCC3(CCN(C[C@@H](O)c4ccc5c(c4Cl)Cn4nnnc4-5)CC3)C2=O)COC1=O
IC50 [4]: 9 nM

C[C@H]1CC2(CCN(C[C@@H](O)c3ccc4c(ccc5nnnn54)c3)CC2)C(=O)N1C1=CC(=O)OC1
IC50 [4]: 10 nM

Cc1c(C#N)cccc1[C@@H]1CN2CCN(C(=O)Cc3ccc(-n4cnnn4)cc3)C[C@H]2CO1
IC50 [2]: 60 nM | IC50 [3]: 14800 nM

CC1=C(N2CCC3(CCN(CC(CO)c4ccc5c(ccc6nnnn65)c4)CC3)C2=O)COC1=O (stereo not given)
IC50 [4]: 18 nM

CCOc1cc(-n2cc(CNC[C@H](O)c3ccc4c(c3C)COC4=O)cn2)ccc1C#N
IC50 [1]: 6.2 nM

O=[N+]([O-])c1ccc(CN2CCOCCOCCN(Cc3ccc([N+](=O)[O-])cc3)CCOCC2)cc1
inhibition [16]: 69% | IC50 [4]: 294 nM

Reference: ChEMBL document CHEMBL4321786, “Discovery of Small Molecule Renal Outer Medullary Potassium (ROMK) Channel Inhibitors: A Brief History of Medicinal Chemistry Approaches To Develop Novel Diuretic Therapeutics” (J Med Chem, 2019)
